# Patent US9598716B2, “Destructible surfactants and uses thereof” (Waters Technologies Corporation, priority 2002, dated 2017)
# Experiments:
# trypsin = test: Trypsin activity assay (rate of hydrolysis of BAEE to BA, UV); assay type: biochemical; settings: for Trypsin activity (%): 0.5 μg of trypsin in 50 mM ammonium bicarbonate, pH 7.9, no additive = 100
# Experimental: Trypsin activity measurements were carried out by introducing 1 μg/ml of trypsin to 0.25 mM N-α-benzoyl-L-arginine ethyl ester (BAEE, pH 7.9) at room temperature. Changes in trypsin activity were plotted by measuring the rate of hydrolysis of BAEE to a UV active product, BA, at A 252 nm.
# [1] = target: T1, horse skeletal muscle myoglobin (Equus caballus, UniProt P68082); test: Mass spectrometric detection of myoglobin treated with ALS or SDS (electrospray); settings: 5 μM myoglobin with 0.1% surfactant; ALS degraded in 10% acetic acid for 16 hours
# T1 construct: horse skeletal muscle myoglobin (Sigma. P/N M0630); purchased Sigma M0630; host or cells: horse skeletal muscle
# Experimental: Mass spectrometric detection was performed on myoglobin using a Platform LC (Micromass, Manchester, UK) with constant infusion. A stock solution of 50 μM horse skeletal muscle myoglobin (Sigma. P/N M0630) was prepared in 50/50 20 mM ammonium acetate, pH 5.1/acetonitrile (v/v). A stock solution of 1% SDS and 1% ALS were also prepared in both 50/50 ammonium acetate/acetonitrile, and 40/40/10 ammonium acetate/acetonitrile/glacial acetic acid. The surfactant stock solutions were both prepared fresh, and allowed to sit for at least 16 hours. To 100 μL of each of the surfactant stock solutions was added 100 μL of myoglobin stock and 800 μL 50/50 ammonium acetate/acetonitrile. Each solution was then drawn into a 1 mL syringe and placed in a syringe pump (Harvard Instruments). The solution was infused into the mass spectrometer at a flow rate of 20 μL/min. Mass spectrometer settings were as follows:
# Gas flow rate: 340 L/h; Source temperature: 100° C., Capillary voltage: 3.46 kV; Cone voltage: 25 V; Ion energy: 0.6; Scan rate: 3.0 sec/scan; Scan range: 250-1600 amu.
# Lys-C = target: T2, Lys-C (Lysobacter enzymogenes, UniProt Q7M135); test: Comparative digestion of myoglobin with Lys-C; assay type: biochemical; settings: with ALS, no observable digestion without ALS
# T2 construct: purchased Roche Diagnostics
# Experimental: (§1) Proteins (2-20 μM), indicated in Table 2, were solubilized in 50 mM NH4HCO3 or 0.1-0.25% (w/w) ALS before tryptic digestion. The trypsin to protein ratio used was 1-2%. The protein (˜17 μM) was solubilized with 8M urea or 0.25% ALS. After tryptic digestion, ALS was destroyed rapidly by addition of strong acid such as HCl or TFA. The by-products were removed by centrifugation prior to MS analysis. Protein digests were mass analyzed either by a MALDI.TOF mass spectrometer (M@LDI™ LR, Micromass UK Ltd) or separated by RP-HPLC (CapLC®, Waters Corporation) then interfaced to an orthogonal acceleration TOF mass spectrometer (LCT™, Micromass UK Ltd) via an electrospray ionization source.
# (§2) Myoglobin comparative digestion was performed as in Example 3 (in the presence and absence of ALS), with the exchange of the following proteases for trypsin: • A. Asp-N (FIG. 4A) • B. Lys-C (FIG. 4B) • C. Glu-C (FIG. 4C) Digestions were performed for about 50 minutes. The enzymes were purchased from Roche Diagnostics. Analysis is shown in FIGS. 4A-4C, as indicated above. In each case, when no ALS was in the digestion solution, no observable digestion took place. However, with ALS, within about 50 minutes, the entire protein was consumed.
# Glu-C = target: T3, Glu-C (Staphylococcus aureus, UniProt P0C1U8); test: Comparative digestion of myoglobin with Glu-C; assay type: biochemical; settings: with ALS, no observable digestion without ALS
# T3 construct: purchased Roche Diagnostics
# Experimental: as §1, §2
# [2] = pH 7
# From the text: After the chemical reaction proceeds, the surfactant of the present invention involved in enhancing the chemical reaction can be degraded, e.g., by contact with an acidic solution.
# T1 sequence (P68082 whole entry): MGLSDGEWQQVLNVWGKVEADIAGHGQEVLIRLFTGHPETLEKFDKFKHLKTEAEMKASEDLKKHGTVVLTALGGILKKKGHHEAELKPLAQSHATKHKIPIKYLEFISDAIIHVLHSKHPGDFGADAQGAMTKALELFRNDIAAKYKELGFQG
# T3 sequence (P0C1U8 69-336): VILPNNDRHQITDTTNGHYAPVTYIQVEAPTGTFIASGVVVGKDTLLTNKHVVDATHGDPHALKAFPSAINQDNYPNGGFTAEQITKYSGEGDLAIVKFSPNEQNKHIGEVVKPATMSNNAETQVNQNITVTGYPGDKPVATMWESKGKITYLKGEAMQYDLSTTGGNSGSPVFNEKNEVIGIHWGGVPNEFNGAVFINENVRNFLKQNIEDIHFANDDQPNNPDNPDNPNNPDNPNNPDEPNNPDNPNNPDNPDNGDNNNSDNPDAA
# T2 sequence (Q7M135 whole entry): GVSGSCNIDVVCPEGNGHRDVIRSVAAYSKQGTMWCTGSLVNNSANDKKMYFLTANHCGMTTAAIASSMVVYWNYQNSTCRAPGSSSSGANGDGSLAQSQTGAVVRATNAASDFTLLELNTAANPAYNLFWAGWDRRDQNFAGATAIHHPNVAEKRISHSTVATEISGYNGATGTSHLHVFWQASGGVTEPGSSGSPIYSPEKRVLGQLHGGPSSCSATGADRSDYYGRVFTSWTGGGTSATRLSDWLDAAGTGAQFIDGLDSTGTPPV
Molecule,Trypsin activity (%) (trypsin; additive at 50%),Trypsin activity (%) (trypsin; additive at 0.1%),Trypsin activity (%) (trypsin; additive at 0.5%),Myoglobin signal in electrospray mass spectrum [1],other results
CC#N [Acetonitrile],92,,,,
CO [Methanol],31,,,,
"CCCCCCCCCCCCOS(=O)(=O)[O-].[Na+] [SDS, sodium dodecylsulfate]",,20,1,no signals due to myoglobin are observed,Effect on trypsin activity (in words) (trypsin; each of the percentages examined): inhibits trypsin activity
NC(N)=O [Urea],,,,,Trypsin activity (%) (trypsin; additive at 2M): 85%; Trypsin activity (%) (trypsin; additive at 4M): 71%
"sodium 4-[(2-methyl-2 undecyl-1,3-dioxolan-4-yl)methyl]-1-propanesulfonate [ALS]",,99,87,strong myoglobin signal,Effect on trypsin activity (in words) (trypsin; ALS added to the trypsin solution containing SDS): increase in trypsin activity; Time until the entire protein (myoglobin) was consumed (Lys-C): ≤ 50 min; Time until the entire protein (myoglobin) was consumed (Glu-C): ≤ 50 min; Stability of the surfactant [2]: stable
